Like-named read-outs stand apart in the source and are kept apart here.
Key:
IL-1β release = IL-1β release by LPS-stimulated human PBMC; format: cell-based; conditions: for IL-1β: LPS 10 ng/ml 24 hours, mean ± SEM
Experimental: CBD was dissolved in ethanol/DMSO.
Peripheral blood mononuclear cells (PBMC) were isolated from the whole blood of healthy donors by Ficoll Hypaque gradient. […] After this 6 hour pretreatment period, the cells were stimulated with either LPS from Salmonella typhimirium, 10 ng/ml, for 24 hours (for TNF and IL-1β) or with PHA, 5 μg/ml, for 72 hours (for IFNγ) Viability of the PBMC was assessed with the MTT test.
Human PBMC were cultured and stimulated with or without CBD, as described in Materials and Methods. The stimulus for TNF and IL-1 production was LPS, the stimulus for IFNγ production was PHA. The results are the mean of triplicate wells±SEM. ND=not done.

[1] = system: Thioglycollate-elicited granulocytes; assay: viability of granulocytes in the ROI test; format: cell-based, mouse (C57BL/6)
Experimental: Thioglycollate-elicited granulocytes were harvested from C57BL/6 mice by sterile lavage with PBS 18 hrs. after intraperitoneal injection with 1.5 ml thioglycollate medium (1.5 ml in 3% solution). The cells were washed and resuspended at 5×10^5 cells/ml in Hanks' buffered salt solution without phenol red, and distributed at 0.5 ml/tube into luminometer plastic tubes. […] The tube was inserted into luminometer (Biolumate LB 95 oot Berhold Wildbad Germany) which had been prewarmed to 37° C. The granulocyte luminol-enhanced chemiluminescence response to zymosan was considered as the positive control.

IL-10 = assay: human rheumatoid synovial cell IL-10 production (ELISA); format: cell-based; conditions: for IL-10, mean: 48 hours culture
Experimental: (§1) Synovial membrane tissue was obtained from a patient fulfilling the revised American College of Rheumatology criteria for rheumatoid arthritis who underwent joint replacement surgery. Synovial cell cultures were prepared as described. Briefly, synovial membrane tissue was digested with collagenase type A (1 mg/ml) and DNAase I (0.15 mg/ml) in RPMI 1640 containing 5% FCS for 2 hours at 37° C.
(§2) Similarly, rheumatoid synovial cells spontaneously produce cytokines when cultured in vitro. […] With restricted number of human synovial cells in this sample, the optimal dose for inhibiting TNFα may have been missed.

TNF = assay: human rheumatoid synovial cell TNF production (ELISA); format: cell-based; conditions: for TNF, mean: 48 hours culture
Experimental: as §1, §2

[2] = system: collagen induced arthritis (CIA)
Experimental: Bovine type II collagen (CII) was purified from hyaline cartilage, as described [Williams, 1992# 18]. Male DBA/1 mice (8-12 weeks old) were immunized with 100 μg of CII emulsified in complete Freund's adjuvant CFA (Difco, Detroit, Mich.) by intradermal injection at the base of the tail. From day 15 after immunization onwards, mice were examined daily for onset of CIA using two clinical parameters: paw swelling and clinical score [Williams, PNAS, Vol. 89, pages 97848]. Paw swelling was assessed by measuring the thickness of the affected hind paws with 0-10 mm callipers (Kroeplin, Schluchtern, Germany). For the clinical score, 0=normal; 1=slight swelling and erythema; 2=pronounced edema; 3=joint rigidity. Each limb was graded, resulting in a maximal clinical score of 12 per animal. The arthritis was monitored over 10 days, after which the mice were sacrificed.
Mice injected with vehicle alone (ethanolcremophor in saline) served as controls (n=23).

EAE = assay: experimental autoimmune encephalomyelitis (EAE); format: in vivo, mouse (SJL/J)
IL-1 = conditions: cited from earlier work
TNFα release = assay: spontaneous TNF release by murine synovial cells from arthritic mice; format: cell-based, mouse (DBA/1); conditions: for O.D. (cytotoxicity assay for TNF) / TNF: supernatants after 24 h
Experimental: DBA/1 mice which had been immunized with bovine CII in CFA, to induce CIA, as discussed above, were sacrificed at day 10 of arthritis and the knee joints were removed. Synovial cell cultures were performed as previously described. Briefly, synovial membranes were excised under a dissecting microscope and digested with collagenase A (1 mg/ml) (Boehringer-Mannheim) and DNAase type IV (0.15 mg/ml) (Sigma, Dorset, UK) at 37° C. for 20 minutes, in. the presence of polymyxin B (33 μg/ml) (Sigma). […] Supernatants were collected after 24 h. and stored at −20° C. until measured for cytokines.
Well cytotoxicity assay was used.

IFNγ = conditions: cited from earlier work
chronic CIA [3] = assay: chronic CIA, oral feeding of CBD; format: in vivo, mouse; conditions: 25 mg/kg oral daily
Experimental: Controls were fed vehicle (olive oil).
(§3) For the chronic experiments, 6 weeks old mice were immunized with mouse CII (100 μg CII i.d.=intradermal). From day 30 after immunization onwards, the mice developed a chronic relapsing arthritis, which was monitored for 5 weeks, in the same way as described above.
(§4) For the chronic experiment with mouse CII, mice were treated from the first symptoms of arthritis every other day, for 5 weeks. […] Again, mice injected with Vehicle alone served as controls (n=7). For the oral route, the treatment was administered daily at a dose of 25 mg/kg (n=6) and control mice were fed olive oil (n=6).

[4] = system: Thioglycollate induced macrophages (Mφ); assay: viability of macrophages cultured with CBD; format: cell-based, mouse; conditions: 8 μg/ml CBD; after 48 hr
chronic CIA [5] = assay: chronic CIA model (mouse CII), CBD i.p.; format: in vivo; conditions: 5 weeks
Experimental: Results are expressed as a mean of 6 mice. The AUC for the control group is 38.4, and for the 5 mg/kg group 28.9.
as §3, §4

schizophrenia = conditions: in vivo; cited from earlier work

Structure (SMILES): C=C(C)[C@@H]1CCC(C)=C[C@H]1c1c(O)cc(CCCCC)cc1O [CBD, Cannabidiol]
- IL-1β (IL-1β release; CBD 0.1 μg/ml): 621 ± 82 pg/mL
- IL-1β (IL-1β release; CBD 1 μg/ml): 671 ± 74 pg/mL
- IL-1β (IL-1β release; CBD 2.5 μg/ml): 630 ± 81 pg/mL
- IL-1β (IL-1β release; CBD 5 μg/ml): 908 ± 99 pg/mL
- IL-1β (IL-1β release; CBD 10 μg/ml): 1575 ± 335 pg/mL
- IL-1β (IL-1β release; CBD 20 μg/ml): 2292 ± 251 pg/mL
- IL-1β (IL-1β release; CBD 30 μg/ml): 4158 ± 313 pg/mL
- effect on LPS-induced IL-1β release (in words) (IL-1β release; higher concentrations of CBD): increased their release
- effect on LPS-induced IL-1β release (in words) (IL-1β release; lower concentrations of CBD (0.1 to 5 μg/ml)): significantly suppressed
- cell viability at the end of the experiment ([1]; CBD 6 μg/ml): All cells were viable
- cells available (viable) ([1]; after 1-2 hours of CBD treatment, 6 μg/ml): about 100%
- IL-10 release (in words) (IL-10): dose-dependent inhibition
- IL-10, mean (IL-10; CBD 0.1 μg/ml): 273 pg/mL
- IL-10, mean (IL-10; CBD 1 μg/ml): 249 pg/mL
- IL-10, mean (IL-10; CBD 20 μg/ml): 52 pg/mL
- TNF, mean (TNF; CBD 0.1 μg/ml): 1963 pg/mL
- TNF, mean (TNF; CBD 1 μg/ml): 2089 pg/mL
- TNF, mean (TNF; CBD 20 μg/ml): 2271 pg/mL
- TNFa release (in words) (TNF; first initial experiment): not suppressed
- therapeutic effect on CIA (clinical score, paw thickness) ([2]; 2.5 mg/kg i.p. daily until day 10): no effect at all
- therapeutic effect on CIA (clinical score, paw thickness) ([2]; 10 mg/kg i.p. daily until day 10): slight therapeutic effect
- suppression of EAE (in words) (EAE; 10 mg/kg): markedly suppresses EAE
- Duration of EAE (EAE; CBD 10 mg/kg i.p. once a day for 14 days): 2.16 days
- Incidence of EAE (EAE; CBD 10 mg/kg i.p. once a day for 14 days, 6 SJL/J mice): 2/6
- Mean maximum score (EAE) (EAE; CBD 10 mg/kg i.p. once a day for 14 days, six point scale 0-6): 1
- IL-1 production (IL-1): decreased
- O.D. (cytotoxicity assay for TNF) (TNFα release; CBD 1 μg/ml): 0.190 ± 0.003
- TNF (TNFα release; CBD 1 μg/ml): >1000 pg/mL
- O.D. (cytotoxicity assay for TNF) (TNFα release; CBD 2.5 μg/ml): 0.193 ± 0.004
- TNF (TNFα release; CBD 2.5 μg/ml): >1000 pg/mL
- O.D. (cytotoxicity assay for TNF) (TNFα release; CBD 5 μg/ml): 0.422 ± 0.251
- TNF (TNFα release; CBD 5 μg/ml): 100 pg/mL
- O.D. (cytotoxicity assay for TNF) (TNFα release; CBD 10 μg/ml): 0.922 ± 0.103
- TNF (TNFα release; CBD 10 μg/ml): 2 pg/mL
- TNF (TNFα release; CBD 20 μg/ml): <0.01 pg/mL
- O.D. (cytotoxicity assay for TNF) (TNFα release; CBD 50 μg/ml): 1.163 ± 0.119
- TNF (TNFα release; CBD 50 μg/ml): <0.01 pg/mL
- spontaneous TNF release (in words) (TNFα release; CBD added to in vitro cultures): dose-dependent suppression of TNF release
- IFNγ synthesis (IFNγ; high concentrations (5-24 μg/ml)): completely blocked IFNγ synthesis
- IFNγ production (IFNγ; low concentrations): increase IFNγ production
- progression of chronic CIA (in words) (chronic CIA [3]): suppression of the progression of chronic CIA
- area under the curve of arthritis score (chronic CIA [3]; controls 72.3): 49.7
- viability of Mφ [4]: **After 48 hr the Mφ cultured with 8 μg/ml CBD were only 70% viable
- suppression of chronic arthritis (in words) (chronic CIA [5]; 5 mg/kg i.p.): optimal in suppressing the arthritis
- area under the curve (AUC) of arthritis score (chronic CIA [5]; 5 mg/kg i.p., control group 38.4): 28.9
- suppression of chronic arthritis (in words) (chronic CIA [5]; 10 mg/kg i.p.): less effective than 5 mg/kg
- antipsychotic effects in schizophrenia (schizophrenia): antipsychotic effects

Reference: patent US6410588B1, “Use of cannabinoids as anti-inflammatory agents” (priority 1998, dated 2002)
